# According to ChEMBL document CHEMBL1132005, “Structure-activity relationship in two series of aminoalkyl substituted coumarin inhibitors of gyrase B” (1999):
# Columns and labels:
# Staphylococcus aureus [1] = experiment: In vitro antibacterial activity against Staphylococcus aureus 011HT3; type: functional
# Staphylococcus aureus [2] = experiment: In vitro antibacterial activity against Staphylococcus aureus 011HT1 Nov-R; type: functional
# Staphylococcus aureus [3] = experiment: In vitro antibacterial activity against Staphylococcus aureus 011GO76 OfloOxaEry-R; type: functional
# Enterococcus faecium = experiment: In vitro antibacterial activity against Enterococcus faecium 02D31P2 VanTeiEry-R; type: functional
# Streptococcus pyogenes = experiment: In vitro antibacterial activity against Streptococcus pyogenes O2A1UC1
# [4] = biological target: DNA gyrase (Escherichia coli) (UniProt P0AES6+P0AES4); experiment: In vitro inhibition of supercoiling activity of Escherichia coli DNA gyrase as the ratio of IC50 of Novobiocin and IC50 of compound; type: protein-complex assay
# [5] = test system: Staphylococcus epidermidis; experiment: In vitro antibacterial activity against Staphylococcus epidermidis 012GO39 OxaTei-R; type: functional
SMILES,MIC (Staphylococcus aureus [1]),MIC (Staphylococcus aureus [2]),MIC (Staphylococcus aureus [3]),MIC (Enterococcus faecium),MIC (Streptococcus pyogenes),Ratio [4],MIC [5]
CO[C@@H]1[C@@H](OC(=O)c2ccc(C)[nH]2)[C@@H](O)[C@H](Oc2ccc3c(O)c(NC(=O)c4ccc(O)c(CC=C(C)C)c4)c(=O)oc3c2Cl)OC1(C)C [CHLOROBIOCIN],< 0.04 µg/mL,0.15 µg/mL,< 0.04 µg/mL,–,< 0.04 µg/mL,–,< 0.04 µg/mL
CCN1CCN(Cc2cc(=O)oc3c(C)c(O[C@@H]4OC(C)(C)[C@H](OC)[C@@H](OC(=O)c5ccc(C)[nH]5)[C@H]4O)ccc23)CC1,5 µg/mL,> 40 µg/mL,10 µg/mL,> 40 µg/mL,20 µg/mL,1,2.5 µg/mL
CO[C@@H]1[C@@H](OC(=O)c2ccc(C)[nH]2)[C@@H](O)[C@H](Oc2ccc3c(OCCN4CCN(C)CC4)c(Cl)c(=O)oc3c2C)OC1(C)C,5 µg/mL,> 40 µg/mL,10 µg/mL,> 40 µg/mL,10 µg/mL,0.33,5 µg/mL
CO[C@@H]1[C@@H](OC(=O)c2ccc(C)[nH]2)[C@@H](O)[C@H](Oc2ccc3c(CN4CCNC(c5ccccc5)C4)cc(=O)oc3c2C)OC1(C)C (stereo not given in full),1.2 µg/mL,10 µg/mL,5 µg/mL,10 µg/mL,2.5 µg/mL,0.28,1.2 µg/mL
CO[C@@H]1[C@@H](OC(=O)c2ccc(C)[nH]2)[C@@H](O)[C@H](Oc2ccc3c(OCCN4CCOCC4)c(Cl)c(=O)oc3c2C)OC1(C)C,1.2 µg/mL,> 40 µg/mL,2.5 µg/mL,> 40 µg/mL,5 µg/mL,0.17,2.5 µg/mL
CO[C@@H]1[C@@H](OC(=O)c2ccc(C)[nH]2)[C@@H](O)[C@H](Oc2ccc3c(OCCN)cc(=O)oc3c2C)OC1(C)C,2.5 µg/mL,20 µg/mL,5 µg/mL,20 µg/mL,5 µg/mL,0.81,1.2 µg/mL
CO[C@@H]1[C@@H](OC(=O)c2ccc(C)[nH]2)[C@@H](O)[C@H](Oc2ccc3c(Cn4cncn4)cc(=O)oc3c2C)OC1(C)C,1.2 µg/mL,40 µg/mL,2.5 µg/mL,40 µg/mL,2.5 µg/mL,0.4,0.6 µg/mL

# Results, then the molecule that gave them:
MIC (Staphylococcus aureus [1]),MIC (Staphylococcus aureus [2]),MIC (Staphylococcus aureus [3]),MIC (Enterococcus faecium),MIC (Streptococcus pyogenes),Ratio [4],MIC [5],SMILES
1.2 µg/mL,5 µg/mL,5 µg/mL,5 µg/mL,1.2 µg/mL,0.17,0.6 µg/mL,CO[C@@H]1[C@@H](OC(=O)c2ccc(C)[nH]2)[C@@H](O)[C@H](Oc2ccc3c(CN4CCNCC4c4ccccc4)cc(=O)oc3c2C)OC1(C)C (stereo not given in full)
0.6 µg/mL,20 µg/mL,1.2 µg/mL,20 µg/mL,2.5 µg/mL,0.22,0.6 µg/mL,CO[C@@H]1[C@@H](OC(=O)c2ccc(C)[nH]2)[C@@H](O)[C@H](Oc2ccc3c(CN4CCC(O)CC4)cc(=O)oc3c2C)OC1(C)C
0.3 µg/mL,5 µg/mL,10 µg/mL,5 µg/mL,1.2 µg/mL,0.33,0.6 µg/mL,CO[C@@H]1[C@@H](OC(=O)c2ccc(C)[nH]2)[C@@H](O)[C@H](Oc2ccc3c(OCCN4CCNC(c5ccccc5)C4)cc(=O)oc3c2C)OC1(C)C (stereo not given in full)
0.6 µg/mL,10 µg/mL,10 µg/mL,10 µg/mL,1.2 µg/mL,0.33,0.6 µg/mL,CO[C@@H]1[C@@H](OC(=O)c2ccc(C)[nH]2)[C@@H](O)[C@H](Oc2ccc3c(CN4CCNC(c5ccco5)C4)cc(=O)oc3c2C)OC1(C)C (stereo not given in full)
1.2 µg/mL,40 µg/mL,> 40 µg/mL,> 40 µg/mL,10 µg/mL,0.25,0.6 µg/mL,CO[C@@H]1[C@@H](OC(=O)c2ccc(C)[nH]2)[C@@H](O)[C@H](Oc2ccc3c(OCCN4CCOC(CO)C4)cc(=O)oc3c2C)OC1(C)C (stereo not given in full)
0.3 µg/mL,10 µg/mL,0.6 µg/mL,20 µg/mL,2.5 µg/mL,0.22,0.15 µg/mL,CO[C@@H]1[C@@H](OC(=O)c2ccc(C)[nH]2)[C@@H](O)[C@H](Oc2ccc3c(OCCN4CCOCC4)cc(=O)oc3c2C)OC1(C)C
0.6 µg/mL,> 20 µg/mL,1.2 µg/mL,10 µg/mL,1.2 µg/mL,0.22,0.3 µg/mL,CO[C@@H]1[C@@H](OC(=O)c2ccc(C)[nH]2)[C@@H](O)[C@H](Oc2ccc3c(OCCn4ccnc4)cc(=O)oc3c2C)OC1(C)C
0.6 µg/mL,20 µg/mL,10 µg/mL,20 µg/mL,2.5 µg/mL,0.35,0.6 µg/mL,CO[C@@H]1[C@@H](OC(=O)c2ccc(C)[nH]2)[C@@H](O)[C@H](Oc2ccc3c(CSc4ncc[nH]4)cc(=O)oc3c2C)OC1(C)C
0.6 µg/mL,> 40 µg/mL,> 40 µg/mL,> 40 µg/mL,1.2 µg/mL,0.63,0.08 µg/mL,CO[C@@H]1[C@@H](OC(=O)c2ccc(C)[nH]2)[C@@H](O)[C@H](Oc2ccc3c(OCCn4cnc(-c5cccnc5)c4)cc(=O)oc3c2C)OC1(C)C
